# Assay results as given in US12448388B2, “PRMT5 inhibitors and uses thereof” (Gilead Sciences, Inc., priority 2023, dated 2025).
# pEC50: −log10 of the molar value. Where two headings read alike, the source gives them in different places.
# Key:
# [1] = test system: Symmetric Di-methyl Arginine (SDMA) signal (PRMT5 inhibition) in HCT116 MTAP-deleted cells; assay: Symmetric di-methyl arginine image-based high content screen assay (SDMA assay), HCT116 MTAP-deleted; assay type: cell-based; conditions: for pEC50: Homo sapiens, HCT-116, HCT116 MTAP-deleted, class symbols
# Procedure: Symmetric di-methyl arginine image-based high content screen assay (SDMA assay) was performed in HCT116 WT and HCT116 MTAP-deleted cell lines to measure Symmetric Di-methyl Arginine (SDMA) signal reduction after selective PRMT5 inhibition in the MTAP-deleted cells. Control compounds were analyzed in parallel each time for quality control.
# Briefly, the same compound plates were generated as mentioned in the previous section of Cell viability assay on Day −1. On Day 0, 800 HCT WT or HCT116 MTAP-deleted cell were seeded in compound-containing 384 well plates (50 μl per well) in RPMI 1640 media supplemented with 10% heat inactivated fetal bovine serum, Glutamax and penicillin streptomycin using EL460 liquid dispenser 5 μl cassette (BioTek, part no. 7170011). After equilibrating the plate at room temperature, the cells were incubated for 3 days inside the sealed incubator set at 37° C. with 90% humidity and 5% C02.
# On Day 3, the cells were fixed by adding 45 μl of 8% neutralized formalin solution to each well using EL460 liquid dispenser 5 μl cassette and the cells were incubated for 30 minutes at room temperature. The formalin solution was washed off with […] phosphate buffered saline (dPBS), the 0.1% Triton X-100 solution in dPBS was used to permeabilize the cells for 15 minutes at room temperature. The triton solution was aspirated, 50 μl of Odyssey Blocking buffer +0.05% Tween20 was added and the plate was incubated at room temperature for 30 minutes.
# The blocking solution was removed, a 20 μl of SDMA antibody (Cell Signaling Technology, Cat no. 13222) diluted 1:500 in Odyssey Blocking buffer +0.05% Tween20 was added and the plate was incubated at 4° C. overnight. Next day, the primary SDME antibody solution was washed from each well three times with 0.05% Tween20 in dPBS (PBST).
# A 30 μl of the secondary antibody, a Goat anti-Rabbit Alexa Fluor Plus 488 (Invitrogen, Cat no. PIA32731) was diluted 1:500 in Odyssey Blocking buffer +0.05% Tween20 and the plate was incubated for 1.5 hours in dark at room temperature. The secondary antibody solution was removed, 30 μl of 5 mg/ml DAPI solution diluted 1:2000 in dPBS was added and the plate was incubated for 30 minutes in dark at room temperature. The DAPI solution was aspirated and the wells were washed six times with dPBS.
# The SDMA signal and DAPI signal per cell were counted using a Cellomics CX7 LZR instrument reading under 488 and 405 nm laser, respectively. The SDMA signal was quantified by mean average intensity per cell from Alexa Fluor Plus 488 after the cell was defined with DAPI. The EC50 values for each compound after 3 days of treatment were calculated using 4 parameter non-linear logistical curve fit.
# For the SDMA assay i.e. EC50 shown in Table 3A: A: EC50≤1 nM, B: 1 nM<EC50≤5 nM, C: EC50>5 nM.
# [2] = test system: HCT116 MTAP-deleted cell lines; assay: Cell viability assay (CellTiter-Glo, 7 days), HCT116 MTAP-deleted; assay type: cell-based; conditions: Homo sapiens, HCT-116, HCT116 MTAP-deleted, class symbols, read-out: CC50
# How it was run: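 First, compounds are serially diluted in DMSO and dispensed into plates, which are frozen until seeding. Next, cells are added and incubated 7 days at 37 °C, 5% CO2, 90% humidity. Finally, CellTiter-Glo reagent is added and luminescence is measured to derive CC50.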
# [3] = HCT116 WT versus HCT116 MTAP-deleted
# [4] = HCT116 WT vs HCT116 MTAP-deleted
Structure (SMILES),"EC50 selectivity [1, 3]",pEC50 [1],CC50 ([2]; cell viability) [nM],"EC50 selectivity [1, 4]",CC50 ([2]; cell viability assay) [nM]
"Cc1ncc2c(N)nc3ccc(C(=O)N(C)[C@@H]4COc5cc(C#CC6(C)COC6)ccc54)cc3n12 [Ff-20, (S)-4-amino-N,1-dimethyl-N-(6-((3-methyloxetan-3-yl)ethynyl)-2,3-dihydrobenzofuran-3-yl)imidazo[1,5-a]quinoxaline-8-carboxamide]",382,8.30 to 9.00,< 100,–,–
"C=Cc1cc2nc(N)c3cncn3c2cc1C(=O)N(C)[C@@H]1COc2cc(C(F)(F)F)ccc21 [Fg-51, (S)-4-amino-N-methyl-N-(6-(trifluoromethyl)-2,3-dihydrobenzofuran-3-yl)-7-vinylimidazo[1,5-a]quinoxaline-8-carboxamide]",–,8.30 to 9.00,–,319,< 100
"Nc1nc2cc(F)c(C(=O)N(Cc3ccc(C(F)(F)F)cc3F)C(CO)CO)cc2n2cncc12 [Ff-27, 4-amino-7-fluoro-N-[[2-fluoro-4-(trifluoromethyl)phenyl]methyl]-N-[2-hydroxy-1-(hydroxymethyl)ethyl]imidazo[1,5-a]quinoxaline-8-carboxamide]",51,< 8.30,> 1000,–,–
"[2H]C([2H])([2H])c1ncn2c1c(N)nc1cnc(C(=O)N3CCC[C@@H]4Oc5cc(C(F)(F)F)ccc5[C@@H]43)cc12 [Ff-662, (4-amino-3-(methyl-d3)imidazo[1,5-a]pyrido[3,4-e]pyrazin-8-yl)((4aS,9bS)-7-(trifluoromethyl)-3,4,4a,9b-tetrahydrobenzofuro[3,2-b]pyridin-1(2H)-yl)methanone]",–,8.30 to 9.00,–,70,< 100
"Cc1ncn2c(N)nc3ccc(C(=O)N(C)[C@@H]4COc5cc(C(F)(F)F)ccc54)cc3c12 [Fg-11, (S)-5-amino-N,1-dimethyl-N-(6-(trifluoromethyl)-2,3-dihydrobenzofuran-3-yl)imidazo[1,5-c]quinazoline-9-carboxamide]",–,< 8.30,–,225,100 to 1000
"CC(=O)N(C)N(Cc1ccc(-c2cnn(C(F)(F)F)c2)cc1F)C(=O)c1ccc2nc(N)c3c(C)ncn3c2c1 [Fa-5, N′-acetyl-4-amino-N-(2-fluoro-4-(1-(trifluoromethyl)-1H-pyrazol-4-yl)benzyl)-N′,3-dimethylimidazo[1,5-a]quinoxaline-8-carbohydrazide]",101,8.30 to 9.00,< 100,–,–
"[2H]C1([2H])CC[C@@H]2Oc3cc(C(F)(F)F)ccc3[C@@H]2N1C(=O)c1cc2c(cn1)nc(N)c1c(C)ncn12 [Ff-644, (4-amino-3-methylimidazo[1,5-a]pyrido[3,4-e]pyrazin-8-yl)((4aS,9bS)-7-(trifluoromethyl)-3,4,4a,9b-tetrahydrobenzofuro[3,2-b]pyridin-1(2H)-yl-2,2-d2)methanone]",–,≥ 9.00,–,92,< 100
"CN(C(=O)c1cc2c(cc1F)nc(N)c1cncn12)[C@@H]1CC2(CC2)c2cc(C(F)(F)F)ccc21 [Ff-58, (R)-4-amino-7-fluoro-N-methyl-N-(6′-(trifluoromethyl)-2′,3′-dihydrospiro[cyclopropane-1,1′-inden]-3′-yl)imidazo[1,5-a]quinoxaline-8-carboxamide]",166,8.30 to 9.00,< 100,–,–
"CN(C(=O)c1cc2c(cc1F)nc(N)c1cncn12)[C@@H]1COc2nc(C(F)(F)F)ccc21 [Ff-22, (S)-4-amino-7-fluoro-N-methyl-N-(6-(trifluoromethyl)-2,3-dihydrofuro[2,3-b]pyridin-3-yl)imidazo[1,5-a]quinoxaline-8-carboxamide]",587,8.30 to 9.00,< 100,–,–
"CN(C(=O)c1cc2c(cc1F)nc(N)c1cncn12)[C@@H]1COc2cc(Cl)ccc21 [Ff-567, (S)-4-amino-N-(6-chloro-2,3-dihydrobenzofuran-3-yl)-7-fluoro-N-methylimidazo[1,5-a]quinoxaline-8-carboxamide]",–,≥ 9.00,–,707,< 100
"Nc1nc2ccc(C(=O)N3CCC4(CC4)[C@@H]4Oc5cc(OC(F)(F)F)ccc5[C@@H]43)cc2n2cncc12 [Ff-615, (4-aminoimidazo[1,5-a]quinoxalin-8-yl)((4aS,9bS)-7-(trifluoromethoxy)-2,3,4a,9b-tetrahydro-1H-spiro[benzofuro[3,2-b]pyridine-4,1′-cyclopropan]-1-yl)methanone]",–,≥ 9.00,–,158,< 100
"CCN(C(=O)c1cc2c(cc1F)nc(N)c1cncn12)[C@@H]1COc2cc(C(F)(F)F)ccc21 [Ff-9, (S)-4-amino-N-ethyl-7-fluoro-N-(6-(trifluoromethyl)-2,3-dihydrobenzofuran-3-yl)imidazo[1,5-a]quinoxaline-8-carboxamide]",106,≥ 9.00,< 100,–,–
"CC(=O)N(C)N(Cc1ccc(C(F)(F)F)cc1F)C(=O)c1ccc2nc(N)c3c(C)nc(C)n3c2c1 [Fa-7, N′-acetyl-4-amino-N-(2-fluoro-4-(trifluoromethyl)benzyl)-N′,1,3-trimethylimidazo[1,5-a]quinoxaline-8-carbohydrazide]",159,< 8.30,100 to 1000,–,–
"Nc1nc2ccc(C(=O)N3C[C@@H](F)C[C@@H]4Oc5cc(OC(F)(F)F)ccc5[C@@H]43)cc2n2cncc12 [Ff-667, (4-aminoimidazo[1,5-a]quinoxalin-8-yl)((3S,4aS,9bS)-3-fluoro-7-(trifluoromethoxy)-3,4,4a,9b-tetrahydrobenzofuro[3,2-b]pyridin-1(2H)-yl)methanone]",–,≥ 9.00,–,115,< 100
"Nc1nc2ccc(C(=O)N(Cc3ccc(C(F)(F)F)cc3F)C3COC3)cc2n2cncc12 [Ff-410, 4-amino-N-[[2-fluoro-4-(trifluoromethyl)phenyl]methyl]-N-(oxetan-3-yl)imidazo[1,5-a]quinoxaline-8-carboxamide]",–,< 8.30,–,453,100 to 1000
"Nc1nc2cc(F)c(C(=O)N(Cc3ccc(C(F)(F)F)cc3F)C34CC(C3)C4)cc2n2cncc12 [Ff-210, 4-amino-N-(bicyclo[1.1.1]pentan-1-yl)-7-fluoro-N-(2-fluoro-4-(trifluoromethyl)benzyl)imidazo[1,5-a]quinoxaline-8-carboxamide]",45,≥ 9.00,< 100,–,–
"C[C@@H]1C[C@@H]2Oc3cc(OC(F)(F)F)ccc3[C@@H]2N(C(=O)c2ccc3nc(N)c4cncn4c3c2)C1 [Ff-616, (4-aminoimidazo[1,5-a]quinoxalin-8-yl)((3R,4aS,9bS)-3-methyl-7-(trifluoromethoxy)-3,4,4a,9b-tetrahydrobenzofuro[3,2-b]pyridin-1(2H)-yl)methanone]",–,≥ 9.00,–,162,< 100
"CC(=O)N(C)N(Cc1nc2cc(Cl)ccc2s1)C(=O)c1ccc2nc(N)c3cncn3c2c1 [Fb-5, N′-acetyl-4-amino-N-((5-chlorobenzo[d]thiazol-2-yl)methyl)-N′-methylimidazo[1,5-a]quinoxaline-8-carbohydrazide]",320,< 8.30,100 to 1000,–,–
"Cc1ncc2c(N)nc3ccc(C(=O)N(C)[C@@H]4COc5nc(C(F)(F)F)ccc54)cc3n12 [Ff-21, (S)-4-amino-N,1-dimethyl-N-(6-(trifluoromethyl)-2,3-dihydrofuro[2,3-b]pyridin-3-yl)imidazo[1,5-a]quinoxaline-8-carboxamide]",874,8.30 to 9.00,100 to 1000,–,–
